{"source": "patent US20200289434A1", "about": "“RAPIDLY IMPROVING ENDOTHELIAL FUNCTION, REDUCING ARTERIAL STIFFNESS AND REVERSING CALCIFICATION OF BLOOD VESSELS BY ADMINISTERING VITAMIN K” (KAYDENCE PHARMA AS, priority 2019, published 2020)", "key": {"[1]": {"system": "ApoE/LDLR−/− mice", "assay": "Example 2: MRI-based assessment of NO-dependent vasodilatation in BCA and LCA after acetylcholine", "type": "in vivo", "conditions": "two months, 6-month old mice", "method": "Endpoint assays: Magnetic resonance imaging (MRI)-based assessment of nitric oxide (NO)-dependent vasodilatation in brachiocephalic (BCA) and left common carotid artery (LCA) after acetylcholine (Ach) administration—by MRI 9.4T scanner, total time of measurements: 114 h (1.5 h per animal), acetylcholine (Ach, 16.6 mg/kg b.w.)\nStudies were performed on 4-month old female ApoE/LDLR−/− mice, the model initially described by Ishibashi S, Herz J, Maeda N, Goldstein J, Brown M. The two-receptor model of lipoprotein clearance: tests of the hypothesis in “knockout” mice lacking the low density lipoprotein receptor, apolipoprotein E, or both proteins. Proc Natl Acad Sci USA 1994; 10:4431-5., and extensively characterized in previous studies, [see Kostogrys R B, Franczyk-Zarow M, Gasior-Glogowska M, Kus E, Jasztal A, Wrobel T P, et al. Anti-atherosclerotic effects of pravastatin in brachiocephalic artery in comparison with en face aorta and aortic roots in ApoE/LDLR−/− mice. Pharmacol Reports 2017; 69:112-8. doi:10.1016/j.pharep.2016.09.014; Tyrankiewicz U, Skorka T, Orzylowska A, Jablonska M, Jasinski K, Jasztal A, et al. Comprehensive MRI for the detection of subtle alterations in diastolic cardiac function in apoE/LDLR−/− mice with advanced atherosclerosis. NMR Biomed 2016; 29:833-40. doi:10.1002/nbm.3524; Mateuszuk L, Jasztal A, Maslak E, Gasior-Glogowska M, Baranska M, Sitek B, et al. Antiatherosclerotic Effects of 1-Methylnicotinamide in Apolipoprotein E/Low-Density Lipoprotein Receptor-Deficient Mice: A Comparison with Nicotinic Acid. J Pharmacol Exp Ther 2016; 356:514-24. doi:10.1124/jpet.115.228643; Wrobel T P, Marzec K M, Chlopicki S, Maślak E, Jasztal A, Franczyk-Żarów M, et al., Effects of Low Carbohydrate High Protein (LCHP) diet on atherosclerotic plaque phenotype in ApoE/LDLR−/− mice: FT-IR and Raman imaging. […] End-diastolic volumes of BCA and LCA were analyzed using ImageJ software (1.46r NIH Bethesda, Md., USA) and scripts written in Matlab (MathWorks, Natick, Mass., USA) (FIG. 1A)."}, "[2]": {"assay": "Example 3 second part: lipid profile, liver enzymes and blood count", "conditions": "eight weeks"}}, "note": "“And” between values parts separate entries of the source, which are not always exact repeats. Equal entries are not always repeated.", "data": [{"smiles": "CC(C)=CCC/C(C)=C/CC/C(C)=C/CC/C(C)=C/CC/C(C)=C/CC/C(C)=C/CC/C(C)=C/CC1=C(C)C(=O)c2ccccc2C1=O", "note": "[MK-7, menaquinone-7]", "values": [{"measurement": "volume change of BCA after Ach injection", "setting": "[1]; high dose 10 mg/kg b.w./day", "result": 3.12, "unit": "%"}, {"measurement": "volume change of LCA after Ach injection", "setting": "[1]; high dose 10 mg/kg b.w./day", "result": 4.45, "unit": "%"}, {"measurement": "volume change of LCA after Ach injection", "setting": "[1]; low dose 0.03 mg/kg b.w./day, listed as vitamin MK-7, 0.03 mg/kg/day", "result": "~−3% and −3.92%"}, {"measurement": "MPV", "setting": "[2]; 0.03 mg/kg", "result": "5.20 ± 0.33"}, {"measurement": "MPV", "setting": "[2]; 10 mg/kg", "result": "4.97 ± 0.19"}]}]}
